PMC9927415, “Tyrosine Kinase Inhibitors Display Potent Activity against Cryptosporidium parvum” (Microbiology Spectrum, 2022)
Read-outs that look alike come from different tables or passages of the source.

Columns and labels:
Test in all cases: KINOMEscan competitive binding
[1] = target: T1, AXL (Homo sapiens, UniProt P30530)
T1 construct: purchased DiscoverX (KINOMEscan)
T1 sequence (P30530 26-894): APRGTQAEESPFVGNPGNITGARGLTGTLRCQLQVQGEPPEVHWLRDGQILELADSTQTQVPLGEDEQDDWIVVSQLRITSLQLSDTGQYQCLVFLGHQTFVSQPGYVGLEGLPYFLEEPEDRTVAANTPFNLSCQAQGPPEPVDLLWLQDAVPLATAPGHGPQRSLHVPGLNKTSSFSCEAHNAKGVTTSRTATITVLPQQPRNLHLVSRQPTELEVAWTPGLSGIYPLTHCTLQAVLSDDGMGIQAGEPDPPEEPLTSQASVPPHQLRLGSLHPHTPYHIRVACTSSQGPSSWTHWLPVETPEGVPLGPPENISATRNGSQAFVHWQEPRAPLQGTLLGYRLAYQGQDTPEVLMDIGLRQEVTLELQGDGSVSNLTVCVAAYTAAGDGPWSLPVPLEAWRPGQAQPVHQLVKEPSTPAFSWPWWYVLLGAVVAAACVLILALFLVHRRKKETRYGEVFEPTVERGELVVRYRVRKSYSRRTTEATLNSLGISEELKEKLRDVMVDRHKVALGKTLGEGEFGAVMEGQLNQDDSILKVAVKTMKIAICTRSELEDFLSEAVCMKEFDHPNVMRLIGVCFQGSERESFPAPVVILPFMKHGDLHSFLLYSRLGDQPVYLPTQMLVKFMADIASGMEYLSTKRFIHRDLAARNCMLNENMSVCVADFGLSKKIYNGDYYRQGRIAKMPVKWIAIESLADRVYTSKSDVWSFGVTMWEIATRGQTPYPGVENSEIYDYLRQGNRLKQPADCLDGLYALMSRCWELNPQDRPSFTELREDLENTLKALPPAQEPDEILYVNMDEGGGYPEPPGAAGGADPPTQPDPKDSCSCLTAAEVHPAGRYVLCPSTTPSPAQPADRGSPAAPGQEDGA
Excerpt: (§1) The kinases were expressed as fusions to T7 bacteriophage. This is a sensitive, competitive binding assay where test compounds were used to displace immobilized ATP-site binding probe ligands from kinases of interest. The amount of kinase that remained bound to the immobilized probe ligands on the solid support was quantified. Percentage inhibition data were was plotted on kinome trees using the web-based tool KinMap (http://www.kinhub.org/kinmap) ([60]).

[2] = target: T2, Aurora kinase A (Homo sapiens, UniProt O14965)
T2 construct: purchased DiscoverX (KINOMEscan)
T2 sequence (O14965 1-403): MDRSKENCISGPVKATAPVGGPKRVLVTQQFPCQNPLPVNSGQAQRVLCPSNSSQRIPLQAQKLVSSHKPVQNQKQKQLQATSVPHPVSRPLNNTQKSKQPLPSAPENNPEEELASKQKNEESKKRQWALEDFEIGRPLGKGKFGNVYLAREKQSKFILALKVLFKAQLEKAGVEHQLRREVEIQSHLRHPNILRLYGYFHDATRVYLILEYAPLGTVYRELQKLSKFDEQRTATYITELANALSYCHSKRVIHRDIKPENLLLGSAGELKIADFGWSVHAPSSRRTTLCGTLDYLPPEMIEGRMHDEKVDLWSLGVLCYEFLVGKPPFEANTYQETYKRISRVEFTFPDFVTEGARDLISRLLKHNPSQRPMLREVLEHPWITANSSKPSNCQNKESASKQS
Excerpt: as §1

[3] = target: T3, CDK5 (Homo sapiens, UniProt Q00535)
T3 construct: purchased DiscoverX (KINOMEscan)
T3 sequence (Q00535 whole entry): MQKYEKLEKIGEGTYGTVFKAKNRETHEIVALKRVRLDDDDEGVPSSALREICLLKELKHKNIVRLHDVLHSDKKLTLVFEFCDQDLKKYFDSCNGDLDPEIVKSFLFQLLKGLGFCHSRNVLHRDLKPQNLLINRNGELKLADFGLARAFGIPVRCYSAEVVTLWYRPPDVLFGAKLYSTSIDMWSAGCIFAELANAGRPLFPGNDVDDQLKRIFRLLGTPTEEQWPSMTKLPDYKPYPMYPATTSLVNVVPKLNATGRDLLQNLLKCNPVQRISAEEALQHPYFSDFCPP
Excerpt: as §1

[4] = target: T4, TTK (Homo sapiens, UniProt P33981)
T4 construct: purchased DiscoverX (KINOMEscan)
T4 sequence (P33981 1-857): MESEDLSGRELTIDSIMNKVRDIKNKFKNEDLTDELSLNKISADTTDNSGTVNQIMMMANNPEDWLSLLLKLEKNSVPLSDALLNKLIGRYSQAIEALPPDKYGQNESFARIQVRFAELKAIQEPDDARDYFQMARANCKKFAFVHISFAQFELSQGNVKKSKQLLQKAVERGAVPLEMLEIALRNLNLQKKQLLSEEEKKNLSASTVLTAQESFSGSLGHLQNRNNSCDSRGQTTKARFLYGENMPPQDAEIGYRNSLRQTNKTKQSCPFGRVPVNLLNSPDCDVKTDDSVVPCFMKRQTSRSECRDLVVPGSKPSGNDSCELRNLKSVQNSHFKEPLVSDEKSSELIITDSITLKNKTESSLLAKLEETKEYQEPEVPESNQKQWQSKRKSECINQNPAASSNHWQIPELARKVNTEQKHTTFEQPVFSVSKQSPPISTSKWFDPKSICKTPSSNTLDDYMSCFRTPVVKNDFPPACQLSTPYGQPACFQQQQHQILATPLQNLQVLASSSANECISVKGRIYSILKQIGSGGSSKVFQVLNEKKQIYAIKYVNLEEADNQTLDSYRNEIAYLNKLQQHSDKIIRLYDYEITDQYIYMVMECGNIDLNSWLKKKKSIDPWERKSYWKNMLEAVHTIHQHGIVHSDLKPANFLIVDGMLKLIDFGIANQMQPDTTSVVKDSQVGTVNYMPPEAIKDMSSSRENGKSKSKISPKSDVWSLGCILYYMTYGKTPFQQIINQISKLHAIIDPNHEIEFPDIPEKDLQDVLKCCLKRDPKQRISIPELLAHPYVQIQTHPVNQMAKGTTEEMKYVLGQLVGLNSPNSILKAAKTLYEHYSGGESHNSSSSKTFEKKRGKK
Excerpt: as §1

[5] = 10 µM, n=1, kinase AXL, read-out: Percent inhibition AXL
[6] = 10 μM, n = 1, read-out: percent inhibition Aurora kinase A
[7] = 10 µM, n=1, kinase AURKA, read-out: Percent inhibition AURKA
[8] = 10 μM, n = 1, read-out: percent inhibition CDK5
[9] = 10 µM, n=1, kinase CDK5, read-out: Percent inhibition CDK5
[10] = KINOMEscan, 10 µM, n=1, read-out: Percent inhibition, TTK

## CN1CCN(c2ccc(Nc3nccc(-c4cnn5ncccc45)n3)cc2C#N)CC1 [Compound 1]
[1]; [5]
  inhibition at 10 µM: 100%
[2]; [6]
  inhibition at 10 µM: > 90%
[2]; [7]
  inhibition at 10 µM: 96.7%
[3]; [8]
  inhibition at 10 µM: > 99%
[3]; [9]
  inhibition at 10 µM: 99.5%
[4]; [10]
  inhibition at 10 µM: 99.9%

## COc1ccc(Nc2nccc(-c3cnn4ncccc34)n2)cc1 [Compound 2]
[1]; [5]
  inhibition at 10 µM: 77.8%
[2]; [6]
  inhibition at 10 µM: > 90%
[2]; [7]
  inhibition at 10 µM: 91.1%
[3]; [8]
  inhibition at 10 µM: > 99%
[3]; [9]
  inhibition at 10 µM: 99.8%
[4]; [10]
  inhibition at 10 µM: 100%

## Cc1ccc(O)cc1Nc1ccnc(Nc2cccc(C(N)=O)c2)n1 [Compound 3]
[1]; [5]
  inhibition at 10 µM: 0%
[2]; [7]
  inhibition at 10 µM: 91.3%
[3]; [9]
  inhibition at 10 µM: 0%
[4]; [10]
  inhibition at 10 µM: 98.7%

## Cc1ccc(O)cc1N(C)c1ccnc(Nc2cccc(S(N)(=O)=O)c2)n1 [Compound 4]
[1]; [5]
  inhibition at 10 µM: 0%
[2]; [7]
  inhibition at 10 µM: 79.6%
[3]; [9]
  inhibition at 10 µM: 0%
[4]; [10]
  inhibition at 10 µM: 91.8%

## Fc1cccc(COc2ccc(Nc3ncnc4c3CN(CCN3CCOCC3)CC4)cc2Cl)c1 [Compound 6]
[1]; [5]
  inhibition at 10 µM: 0%
[2]; [7]
  inhibition at 10 µM: 0%
[3]; [9]
  inhibition at 10 µM: 0%
[4]; [10]
  inhibition at 10 µM: 0%

## COc1cc(Nc2nccc(-c3sc(N)nc3-c3cccc(NC(=O)c4c(F)cccc4F)c3)n2)cc(OC)c1OC [Compound 7]
[1]; [5]
  inhibition at 10 µM: 99%
[2]; [7]
  inhibition at 10 µM: 99.5%
[3]; [9]
  inhibition at 10 µM: 0%
[4]; [10]
  inhibition at 10 µM: 99.2%

## C[C@@H](Oc1cc(-c2cnc3ccccn23)sc1C(N)=O)c1ccccc1Cl [Compound 8]
[1]; [5]
  inhibition at 10 µM: 89%
[2]; [7]
  inhibition at 10 µM: 0%
[3]; [9]
  inhibition at 10 µM: 0%
[4]; [10]
  inhibition at 10 µM: 69.8%

## c1ccc(COc2cccc(-c3ccnc4[nH]ccc34)c2)cc1 [Compound 9]
[1]; 10 μM, n = 1, read-out: percent inhibition AXL
  inhibition at 10 µM: ≥ 90%
[1]; [5]
  inhibition at 10 µM: 93.8%
[2]; [7]
  inhibition at 10 µM: 0%
[3]; [9]
  inhibition at 10 µM: 0%
[4]; [10]
  inhibition at 10 µM: 0%

## Clc1ccc(Nc2ncc(-c3ccccc3)s2)cc1 [Compound 10]
[1]; [5]
  inhibition at 10 µM: 0%
[2]; [7]
  inhibition at 10 µM: 0%
[3]; [9]
  inhibition at 10 µM: 0%
[4]; [10]
  inhibition at 10 µM: 0%

## Nc1ncc2c(-c3ccncc3)c[nH]c2n1 [Compound 11]
[1]; [5]
  inhibition at 10 µM: 0%
[2]; [7]
  inhibition at 10 µM: 0%
[3]; [9]
  inhibition at 10 µM: 0%
[4]; 10 μM, n = 1, read-out: percent inhibition TTK
  inhibition at 10 µM: ≥ 99%
[4]; [10]
  inhibition at 10 µM: 99.5%
